Molecular target: T1, ALK (baculovirus expressed human ALK kinase domain F1098-K1410) (Homo sapiens, UniProt Q9UM73)
T1 construct: human ALK kinase domain F1098-K1410; made in house
Test: biochemical
Conditions: 1 μM ATP, 4 μM poly-AEKY, 12 nM ALK, 2 hours at ambient temperature; read-out: ALK IC50
How it was run: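 Baculovirus-expressed human ALK kinase domain (F1098-K1410) was run in a luciferase-coupled chemiluminescent format, with ATP near its KM. After 2 h at ambient temperature, remaining ATP was read by luciferase-luciferin luminescence. IC50 came from 10-point dose-response curves fitted to a four-parameter equation with Hill slope.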

T1 sequence (Q9UM73 1098-1410): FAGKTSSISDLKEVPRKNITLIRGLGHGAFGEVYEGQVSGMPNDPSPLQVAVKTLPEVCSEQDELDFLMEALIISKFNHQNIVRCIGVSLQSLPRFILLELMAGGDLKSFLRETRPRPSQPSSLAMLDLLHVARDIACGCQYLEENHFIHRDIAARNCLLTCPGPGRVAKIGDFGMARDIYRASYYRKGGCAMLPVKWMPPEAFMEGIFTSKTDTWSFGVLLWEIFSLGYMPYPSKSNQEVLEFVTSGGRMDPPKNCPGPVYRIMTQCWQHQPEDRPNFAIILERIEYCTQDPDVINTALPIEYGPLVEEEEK

Structure (SMILES)	IC50 [µM]
COCC(C)NC(=O)c1csc(CNC(=O)COc2ccc(OC(F)(F)F)cc2)n1 (stereo not drawn) [Entry 268, N-[1-methyl-2-(methyloxy)ethyl]-2-({[({4-[(trifluoromethyl)oxy]phenyl}oxy)acetyl]amino}methyl)-1,3-thiazole-4-carboxamide]	0.5 to 2
CC1CCCCC1NC(=O)c1coc(CNC(=O)COc2ccc(OC(F)(F)F)cc2)n1 (stereo not drawn) [Entry 257, N-(2-methylcyclohexyl)-2-({[({4-[(trifluoromethyl)oxy]phenyl}oxy)acetyl]amino}methyl)-1,3-oxazole-4-carboxamide]	0.5 to 2
CC(C)CCC(C)NC(=O)c1csc(CNC(=O)COc2ccc(OC(F)(F)F)cc2)n1 (stereo not drawn) [Entry 262, N-(1,4-dimethylpentyl)-2-({[({4-[(trifluoromethyl)oxy]phenyl}oxy)acetyl]amino}methyl)-1,3-thiazole-4-carboxamide]	0.5 to 2
NCc1nc(C(=O)NCCc2cccc(Cl)c2)cs1 [Entry 300, 2-(aminomethyl)-N-[2-(3-chlorophenyl)ethyl]-1,3-thiazole-4-carboxamide]	> 2
COc1ccc(CCNC(=O)c2coc(CNC(=O)COc3ccc(OC(F)(F)F)cc3)n2)cc1OC [Entry 155, N-{2-[3,4-bis(methyloxy)phenyl]ethyl}-2-({[({4-[(trifluoromethyl)oxy]phenyl}oxy)acetyl]amino}methyl)-1,3-oxazole-4-carboxamide]	0.05 to 0.5
COc1cc(CCNC(=O)c2coc(CNC(=O)COc3ccc(OC(F)(F)F)cc3)n2)cc(OC)c1 [Entry 207, N-{2-[3,5-bis(methyloxy)phenyl]ethyl}-2-({[({4-[(trifluoromethyl)oxy]phenyl}oxy)acetyl]amino}methyl)-1,3-oxazole-4-carboxamide]	0.05 to 0.5
CCOc1cc(CCNC(=O)c2coc(CNC(=O)COc3ccc(OC(F)(F)F)cc3)n2)ccc1OC [Entry 250, N-{2-[3-(ethyloxy)-4-(methyloxy)phenyl]ethyl}-2-({[({4-[(trifluoromethyl)oxy]phenyl}oxy)acetyl]amino}methyl)-1,3-oxazole-4-carboxamide]	0.5 to 2
COc1ccccc1CNC(=O)c1csc(CNC(=O)COc2ccc(Br)cc2)n1 [Entry 277, 2-[({[(4-bromophenyl)oxy]acetyl}amino)methyl]-N-{[2-(methyloxy)phenyl]methyl}-1,3-thiazole-4-carboxamide]	0.5 to 2
CC1CN(C(=O)c2csc(CNC(=O)COc3ccc(OC(F)(F)F)cc3)n2)CCN1c1ccccc1 (stereo not drawn) [Entry 253, N-({4-[(3-methyl-4-phenylpiperazin-1-yl)carbonyl]-1,3-thiazol-2-yl}methyl)-2-({4-[(trifluoromethyl)oxy]phenyl}oxy)acetamide]	0.5 to 2
O=C(COc1ccc(OC(F)(F)F)cc1)NCc1nc(C(=O)NCCN2CCCC2)cs1 [Entry 274, N-(2-pyrrolidin-1-ylethyl)-2-({[({4-[(trifluoromethyl)oxy]phenyl}oxy)acetyl]amino}methyl)-1,3-thiazole-4-carboxamide]	0.5 to 2
CCOc1ccccc1CNC(=O)c1coc(CNC(=O)COc2ccc(OC(F)(F)F)cc2)n1 [Entry 235, N-{[2-(ethyloxy)phenyl]methyl}-2-({[({4-[(trifluoromethyl)oxy]phenyl}oxy)acetyl]amino}methyl)-1,3-oxazole-4-carboxamide]	0.5 to 2

Now from value to compound:

IC50 [µM]	Structure (SMILES)
0.05 to 0.5	CC(C)c1ccc(CC(=O)NCc2nc(C(=O)NCCc3cccc(Cl)c3)cs2)cc1 [Entry 50, N-[2-(3-chlorophenyl)ethyl]-2-[({[4-(1-methylethyl)phenyl]acetyl}amino)methyl]-1,3-thiazole-4-carboxamide]
0.05 to 0.5	O=C(COc1ccc(I)cc1)NCc1nc(C(=O)NCCc2ccccc2F)cs1 [Entry 59, N-[2-(2-fluorophenyl)ethyl]-2-[({[(4-iodophenyl)oxy]acetyl}amino)methyl]-1,3-thiazole-4-carboxamide]
0.05 to 0.5	Cc1ccccc1CNC(=O)c1csc(CNC(=O)COc2ccc(OC(F)(F)F)cc2)n1 [Entry 98, N-[(2-methylphenyl)methyl]-2-({[({4-[(trifluoromethyl)oxy]phenyl}oxy)acetyl]amino}methyl)-1,3-thiazole-4-carboxamide]
0.05 to 0.5	CC(C)c1ccc(OCC(=O)NCc2nc(C(=O)NCCc3cccc(Cl)c3)cs2)cc1 [Entry 72, N-[2-(3-chlorophenyl)ethyl]-2-{[({[4-(1-methylethyl)phenyl]oxy}acetyl)amino]methyl}-1,3-thiazole-4-carboxamide]
0.05 to 0.5	COc1cccc(CNC(=O)c2csc(CNC(=O)c3cccnc3Oc3ccc(Cl)cc3)n2)c1OC [Entry 144, N-({4-[({[2,3-bis(methyloxy)phenyl]methyl}amino)carbonyl]-1,3-thiazol-2-yl}methyl)-2-[(4-chlorophenyl)oxy]pyridine-3-carboxamide]
0.05 to 0.5	O=C(COc1ccc(OC(F)(F)F)cc1)NCc1nc(C(=O)NCc2ccccc2OC(F)(F)F)cs1 [Entry 57, N-({2-[(trifluoromethyl)oxy]phenyl}methyl)-2-({[({4-[(trifluoromethyl)oxy]phenyl}oxy)acetyl]amino}methyl)-1,3-thiazole-4-carboxamide]
0.05 to 0.5	O=C(COc1ccc(OC(F)(F)F)cc1)NCc1nc(C(=O)NCCc2cccc(C(F)(F)F)c2)co1 [Entry 181, 2-({[({4-[(trifluoromethyl)oxy]phenyl}oxy)acetyl]amino}methyl)-N-{2-[3-(trifluoromethyl)phenyl]ethyl}-1,3-oxazole-4-carboxamide]
< 0.05	O=C(COc1ccc(OC(F)(F)F)cc1)NCc1nc(C(=O)NCC(c2ccccc2)c2ccccc2)cs1 [Entry 18, N-(2,2-diphenylethyl)-2-({[({4-[(trifluoromethyl)oxy]phenyl}oxy)acetyl]amino}methyl)-1,3-thiazole-4-carboxamide]
0.05 to 0.5	CCCCCC(C)NC(=O)c1csc(CNC(=O)COc2ccc(OC(F)(F)F)cc2)n1 (stereo not drawn) [Entry 179, N-(1-methylhexyl)-2-({[({4-[(trifluoromethyl)oxy]phenyl}oxy)acetyl]amino}methyl)-1,3-thiazole-4-carboxamide]
0.05 to 0.5	CCc1ccc(NC(=O)NCc2nc(C(=O)NCCc3ccccc3F)cs2)cc1 [Entry 101, 2-[({[(4-ethylphenyl)amino]carbonyl}amino)methyl]-N-[2-(2-fluorophenyl)ethyl]-1,3-thiazole-4-carboxamide]
0.05 to 0.5	O=C(COc1ccc(OC(F)(F)F)cc1)NCc1nc(C(=O)NCc2cccc(C(F)(F)F)c2F)cs1 [Entry 158, N-{[2-fluoro-3-(trifluoromethyl)phenyl]methyl}-2-({[({4-[(trifluoromethyl)oxy]phenyl}oxy)acetyl]amino}methyl)-1,3-thiazole-4-carboxamide]
0.05 to 0.5	O=C(COc1ccc(OC(F)(F)F)cc1)NCc1nc(C(=O)NCc2ccccc2C(F)(F)F)cs1 [Entry 63, 2-({[({4-[(trifluoromethyl)oxy]phenyl}oxy)acetyl]amino}methyl)-N-{[2-(trifluoromethyl)phenyl]methyl}-1,3-thiazole-4-carboxamide]
0.05 to 0.5	Cc1cccc(CNC(=O)c2csc(CNC(=O)COc3ccc(OC(F)(F)F)cc3)n2)c1C [Entry 46, N-[(2,3-dimethylphenyl)methyl]-2-({[({4-[(trifluoromethyl)oxy]phenyl}oxy)acetyl]amino}methyl)-1,3-thiazole-4-carboxamide]
